From PubChem BioAssay AID248 (DTP/NCI, 2004)
Where “and” joins values, the source holds several entries; their conditions need not be identical. Identical values can stand only once. Inconclusive results and toxic doses are left out. Rule as the data show it: active = T/C of 150% or more; inactive = T/C below 125%.

System: L1210 leukemia ip in BDF1 mice, survival T/C
Assay: NCI In Vivo Anticancer Drug Screen. Data for tumor model L1210 Leukemia (intraperitoneal) in B6D2F1 (BDF1) mice
Conditions: endpoint: mean survival time, higher = longer survival
Procedure, shortened: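 Antitumor effect is assessed in tumor-bearing animals. Survival in the compound arm is compared with a vehicle-dosed control arm and expressed as their quotient.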

[1] = dose: 100.0 mg/kg/injection, schedule: Q01DX009 (ip), vehicle: Klucel (hydroxypropylcellulose) (HPC)
[2] = dose: 200.0 mg/kg/injection, schedule: Q01DX009 (ip), vehicle: Klucel (hydroxypropylcellulose) (HPC)
[3] = dose: 400.0 mg/kg/injection, schedule: Q01DX009 (ip), vehicle: Klucel (hydroxypropylcellulose) (HPC)
[4] = dose: 100.0 mg/kg/injection, schedule: Q04DX003 (ip), vehicle: saline
[5] = dose: 200.0 mg/kg/injection, schedule: Q04DX003 (ip), vehicle: saline
[6] = dose: 400.0 mg/kg/injection, schedule: Q04DX003 (ip), vehicle: saline
[7] = dose: 100.0 mg/kg/injection, schedule: Q04DX002 (ip), vehicle: saline
[8] = dose: 100.0 mg/kg/injection, schedule: Q01DX001 (ip), vehicle: saline
[9] = dose: 200.0 mg/kg/injection, schedule: Q01DX001 (ip), vehicle: saline
[10] = dose: 400.0 mg/kg/injection, schedule: Q01DX001 (ip), vehicle: saline
[11] = dose: 100.0 mg/kg/injection, schedule: Q04DX002 (ip), vehicle: Klucel (hydroxypropylcellulose) (HPC)
[12] = dose: 200.0 mg/kg/injection, schedule: Q04DX002 (ip), vehicle: Klucel (hydroxypropylcellulose) (HPC)
[13] = dose: 100.0 mg/kg/injection, schedule: Q04DX003 (ip), vehicle: Klucel (hydroxypropylcellulose) (HPC)
[14] = dose: 200.0 mg/kg/injection, schedule: Q04DX003 (ip), vehicle: Klucel (hydroxypropylcellulose) (HPC)
[15] = dose: 400.0 mg/kg/injection, schedule: Q04DX003 (ip), vehicle: Klucel (hydroxypropylcellulose) (HPC)

Measured: T/C

O=C(OC1COC(n2c(=O)oc3ccc(F)cc32)C(OC(=O)c2ccccc2)C1OC(=O)c1ccccc1)c1ccccc1 (configuration not stated)
inactive: dose: 100.0 mg/kg/injection, schedule: Q01DX001 (ip), vehicle: carboxymethylcellulose (CMC) 91 % of control | [1] 94 % of control | dose: 200.0 mg/kg/injection, schedule: Q01DX001 (ip), vehicle: carboxymethylcellulose (CMC) 89 % of control | [2] 89 % of control | dose: 400.0 mg/kg/injection, schedule: Q01DX001 (ip), vehicle: carboxymethylcellulose (CMC) 89 % of control | [3] 87 % of control

COC(=O)CCC(=O)Nc1ccccc1
inactive: dose: 100.0 mg/kg/injection, schedule: Q04DX003 (ip), vehicle: saline with Tween-80 101 % of control | dose: 200.0 mg/kg/injection, schedule: Q04DX003 (ip), vehicle: saline with Tween-80 95 % of control | dose: 400.0 mg/kg/injection, schedule: Q04DX003 (ip), vehicle: saline with Tween-80 95 % of control

COC(=O)C1(CN(C)C)CCCC(CN(C)C)(C(=O)OC)C1=O (configuration not stated)
inactive: dose: 50.0 mg/kg/injection, schedule: Q01DX Z (ip), vehicle: carboxymethylcellulose (CMC) 100 % of control and 106 % of control | dose: 75.0 mg/kg/injection, schedule: Q01DX Z (ip), vehicle: carboxymethylcellulose (CMC) 106 % of control and 109 % of control | dose: 115.0 mg/kg/injection, schedule: Q01DX Z (ip), vehicle: carboxymethylcellulose (CMC) 113 % of control | dose: 160.0 mg/kg/injection, schedule: Q01DX Z (ip), vehicle: carboxymethylcellulose (CMC) 106 % of control and 113 % of control

C1CC2(CCN1)SSC1(CCNCC1)S2
inactive: dose: 100.0 mg/kg/injection, schedule: Q01DX009 (ip), vehicle: saline 113 % of control | [4] 114 % of control | dose: 200.0 mg/kg/injection, schedule: Q01DX009 (ip), vehicle: saline 103 % of control | [5] 112 % of control | [6] 96 % of control

Cc1ccc(NC(=O)C(Br)C(Br)C(=O)O)cc1Cl (configuration not stated)
inactive: dose: 100.0 mg/kg/injection, schedule: Q01DX009 (ip), vehicle: saline with Tween-80 107 % of control | dose: 200.0 mg/kg/injection, schedule: Q01DX009 (ip), vehicle: saline with Tween-80 97 % of control

c1ccc(P(=NC2CCCCC2)(c2ccccc2)c2ccccc2)cc1
inactive: dose: 50.0 mg/kg/injection, schedule: Q04DX003 (ip), vehicle: acetone 96 % of control | dose: 100.0 mg/kg/injection, schedule: Q04DX003 (ip), vehicle: acetone 94 % of control

CC1=CC(=O)C2=C(C)C[C@H](O)[C@@H]3[C@H](OC(=O)[C@H]3C)[C@@H]12
inactive: [7] 100 % of control | dose: 200.0 mg/kg/injection, schedule: Q04DX002 (ip), vehicle: saline 89 % of control | dose: 400.0 mg/kg/injection, schedule: Q04DX002 (ip), vehicle: saline 95 % of control

COc1cc2c(cc1OC)C(=O)C(c1[nH]c3cc(OC)c(OC)cc3c1O)=N2
inactive: dose: 50.0 mg/kg/injection, schedule: Q01DX001 (ip), vehicle: saline 98 % of control | [8] 98 % of control | [9] 96 % of control | [10] 96 % of control

CCCCCCCCCCCC(N)=O
inactive: dose: 100.0 mg/kg/injection, schedule: Q01DX001 (ip), vehicle: other 104 % of control | [11] 104 % of control | dose: 200.0 mg/kg/injection, schedule: Q01DX001 (ip), vehicle: other 93 % of control | [12] 110 % of control | dose: 400.0 mg/kg/injection, schedule: Q01DX001 (ip), vehicle: other 96 % of control | dose: 400.0 mg/kg/injection, schedule: Q04DX002 (ip), vehicle: Klucel (hydroxypropylcellulose) (HPC) 93 % of control

CN(C)CC(C)(C)C(=O)c1ccccc1
inactive: dose: 25.0 mg/kg/injection, schedule: Q04DX002 (ip), vehicle: saline 100 % of control | dose: 50.0 mg/kg/injection, schedule: Q04DX002 (ip), vehicle: saline 100 % of control | [7] 104 % of control

C=C(C(=O)c1ccccc1)C(NC(C)(C)C)c1ccccc1 (configuration not stated)
inactive: dose: 5.0 mg/kg/injection, schedule: Q01DX001 (ip), vehicle: saline 95 % of control | dose: 10.0 mg/kg/injection, schedule: Q01DX001 (ip), vehicle: saline 98 % of control | dose: 20.0 mg/kg/injection, schedule: Q01DX001 (ip), vehicle: saline 95 % of control

CC1(C)C(=NNc2ccccc2)C(C)(C)C1=NNc1ccccc1
inactive: dose: 25.0 mg/kg/injection, schedule: Q01DX009 (ip), vehicle: Klucel (hydroxypropylcellulose) (HPC) 93 % of control | [1] 93 % of control and 88 % of control | [13] 97 % of control | [14] 96 % of control | [15] 97 % of control

CC(=O)Nc1ccc(C#N)c2ccccc12
inactive: [1] 97 % of control | [13] 102 % of control | [2] 98 % of control | [14] 102 % of control | [3] 103 % of control | [15] 97 % of control

CCOC(=O)NCc1cccc2ccccc12
inactive: dose: 50.0 mg/kg/injection, schedule: Q01DX001 (ip), vehicle: Klucel (hydroxypropylcellulose) (HPC) 93 % of control | dose: 100.0 mg/kg/injection, schedule: Q01DX001 (ip), vehicle: Klucel (hydroxypropylcellulose) (HPC) 98 % of control | dose: 200.0 mg/kg/injection, schedule: Q01DX001 (ip), vehicle: Klucel (hydroxypropylcellulose) (HPC) 90 % of control | dose: 400.0 mg/kg/injection, schedule: Q01DX001 (ip), vehicle: Klucel (hydroxypropylcellulose) (HPC) 86 % of control

NC(=O)CCCCCCCCC(N)=O
inactive: [8] 98 % of control | [9] 98 % of control | [10] 92 % of control

O=C(O)COc1ccc(Cl)c2ccccc12
inactive: [11] 96 % of control | [12] 100 % of control

CC(C(c1ccc(Br)cc1)c1ccccc1Cl)[N+](=O)[O-] (configuration not stated)
inactive: [4] 95 % of control | [5] 86 % of control | [6] 101 % of control

C#CC1(O)CCC2C3CCc4cc(O)ccc4C3CCC21C (configuration not stated)
inactive: dose: 50.0 mg/kg/injection, schedule: Q01DX001 (sc), vehicle: steriod suspending solution 94 % of control | dose: 100.0 mg/kg/injection, schedule: Q01DX001 (sc), vehicle: steriod suspending solution 92 % of control | dose: 200.0 mg/kg/injection, schedule: Q01DX001 (sc), vehicle: steriod suspending solution 106 % of control | dose: 400.0 mg/kg/injection, schedule: Q01DX001 (sc), vehicle: steriod suspending solution 97 % of control

C/C(=C\C(=O)O)c1ccc(-c2ccccc2)cc1
inactive: dose: 100.0 mg/kg/injection, schedule: Q01DX001 (ip), vehicle: saline with Tween-80 96 % of control | dose: 200.0 mg/kg/injection, schedule: Q01DX001 (ip), vehicle: saline with Tween-80 100 % of control | dose: 400.0 mg/kg/injection, schedule: Q01DX001 (ip), vehicle: saline with Tween-80 102 % of control

O=C(O)CCC1NC(=O)NC1=O (configuration not stated)
inactive: [8] 96 % of control | [9] 96 % of control | [10] 91 % of control

Cc1ccc(N2C(=O)C3C(C2=O)C2(Cl)C(Cl)=C(Cl)C3(Cl)C2(Cl)Cl)cc1Cl (configuration not stated)
inactive: [1] 94 % of control | [2] 87 % of control | [3] 92 % of control
